The values below come from patent US20230233569A1 (Revolution Medicines, Inc., priority 2020, published 2023).

The subject of this assay is K-Ras G12C (NCI-H358 cells). The experiment in a line: Potency assay: pERK (AlphaLISA SureFire or In-Cell Western). As to conditions: Homo sapiens, NCI-H358; H358 KRAS G12C; read-out: pERK EC50. Type of assay: cell-based. Put shortly: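 NCI-H358 cells plated overnight, then treated 4 h at 37 °C with 10-point 3-fold DMSO dilutions (10 mM top stock), in duplicate. pERK1/2 read by AlphaLISA SureFire Ultra lysate assay or by In-Cell Western with DRAQ5 DNA stain. IC50 from 4-parameter sigmoidal fit of signal vs log concentration.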
As to `CCn1c(-c2cccnc2[C@H](C)OC)c2c3cc(ccc31)-c1csc(n1)C[C@H](NC(=O)[C@H](C(C)C)N(C)C(=O)N(C)C1CN(C(=O)/C=C/C(C)(C)O)C1)C(=O)N1CCC[C@H](N1)C(=O)OCC(C)(C)C2` (atropisomer, axis not shown) [Example A350], the EC50 was less than 5 µM.
To `CCn1c(-c2cccnc2[C@H](C)OC)c2c3cc(ccc31)-c1cccc(c1)C[C@H](NC(=O)[C@@H](COC1CN(C(=O)C#C[C@@H]3COCCN3C)C1)C(C)C)C(=O)N1CCC[C@H](N1)C(=O)OCC(C)(C)C2` (atropisomer, axis not shown) [Example A648] belongs less than 5 µM; to `C=CC(=O)N1CC[C@]2(C1)OCN(C(=O)N(C)[C@H](C(=O)N[C@H]1Cc3cccc(n3)-c3ccc4c(c3)c(c(-c3cccnc3[C@H](C)OC)n4CC)CC(C)(C)COC(=O)[C@@H]3CCCN(N3)C1=O)C(C)C)C2=O` (atropisomer, axis not shown) [Example A652], less than 5 µM; to `C=CC(=O)N1CC[C@H](C(=O)N(C)[C@H](C(=O)N[C@H]2Cc3nsc(n3)-c3ccc4c(c3)c(c(-c3cccnc3[C@H](C)OC)n4CC)CC(C)(C)COC(=O)[C@@H]3CCCN(N3)C2=O)C(C)C)C1` (atropisomer, axis not shown) [Example A694], less than 5 µM.
Then `CCn1c(-c2cccnc2[C@H](C)OC)c2c3cc(ccc31)-c1csc(n1)C[C@H](NC(=O)[C@H](COC1CN(C(=O)C#CC(C)(C)N(C)C)C1)OC)C(=O)N1CCC[C@H](N1)C(=O)OCC(C)(C)C2` (atropisomer, axis not shown) [Example A705], with less than 5 µM; and `C=CC(=O)N1CC(OC[C@H](C(=O)N[C@H]2Cc3cc(F)cc(c3)-c3ccc4c(c3)c(c(-c3cccnc3[C@H](C)OC)n4CC)CC(C)(C)COC(=O)[C@@H]3CCCN(N3)C2=O)C(C)C)C1` (atropisomer, axis not shown) [Example A725], with less than 5 µM; and `C=CC(=O)N1CC[C@@H](N(C)C(=O)N(C)[C@H](C(=O)N[C@H]2Cc3nc(cs3)-c3ccc4c(c3)c(c(-c3cccnc3[C@H](C)OC)n4CC(F)(F)F)CC(C)(C)COC(=O)[C@@H]3CCCN(N3)C2=O)C(C)C)C1` (atropisomer, axis not shown) [Example A728], with less than 5 µM.
As for `C=CC(=O)N1CC[C@@]2(CCN2C(=O)N(C)[C@H](C(=O)N[C@H]2Cc3nc(cs3)-c3ccc4c(c3)c(c(-c3cccnc3[C@H](C)OC)n4CC)CC(C)(C)COC(=O)C3CCCN(N3)C2=O)N(C)C)C1` (single isomer, unassigned) [Example A661], the EC50 was less than 5 µM.
To `C=CC(=O)N1CC[C@H](C(=O)N(C)[C@H](C(=O)N[C@H]2Cc3cc(O)cc(c3)-c3ccc4c(c3)c(c(-c3cccnc3)n4C3CC3)CC(C)(C)COC(=O)[C@@H]3CCCN(N3)C2=O)C(C)C)C1` [Example A160] belongs less than 5 µM; to `C=CC(=O)N1CC[C@H](C(=O)N(C)[C@H](C(=O)N[C@H]2Cc3cc(O)cc(c3)-c3ccc4c(c3)c(c(-c3cc(C)cnc3[C@H](C)OC)n4CC)CC(C)(C)COC(=O)[C@@H]3CCCN(N3)C2=O)C(C)C)C1` [Example A167], less than 5 µM; to `CC#CC(=O)N1CC[C@H](C(=O)N(C)[C@H](C(=O)N[C@H]2Cc3nc(cs3)-c3ccc4c(c3)c(c(-c3cccnc3[C@H](C)OC)n4CC)CC(C)(C)COC(=O)[C@@H]3CCCN(N3)C2=O)C(C)C)C1` [Example A168], less than 5 µM.
As to `C=CS(=O)(=O)N1CC[C@H](C(=O)N(C)[C@H](C(=O)N[C@H]2Cc3nc(cs3)-c3ccc4c(c3)c(c(-c3cncnc3)n4CC)CC(C)(C)COC(=O)[C@@H]3CCCN(N3)C2=O)C(C)C)C1` [Example A170], the EC50 was less than 5 µM.
As to `C=CC(=O)N1CC[C@H](C(=O)N(C)[C@H](C(=O)N[C@H]2Cc3cc(O)cc(c3)-c3cnc4c(c3)c(c(-c3ccccc3CCOC)n4CC)CC(C)(C)COC(=O)[C@@H]3CCCN(N3)C2=O)C(C)C)C1` [Example A210], the EC50 is less than 5 µM.
For the compound `C=CC(=O)N1CC[C@H](C(=O)N(C)[C@H](C(=O)N[C@H]2Cc3cc(O)cc(c3)-c3ccc4c(c3)c(c(-c3ccnc5c3[C@@H](OC)CC5)n4CC)CC(C)(C)COC(=O)[C@@H]3CCCN(N3)C2=O)C(C)C)C1` [Example A275], the EC50 was less than 5 µM.
Then `C=CC(=O)N1CC[C@@H](N(C)C(=O)N(C)[C@H](C(=O)N[C@H]2Cc3nc(cs3)-c3ccc4c(c3)c(c(-c3cccnc3[C@H](C)OC)n4CC)CC(C)(C)COC(=O)[C@@H]3CCCN(N3)C2=O)C(C)C)C1` [Example A349], with less than 5 µM.
To `CCn1c(-c2cccnc2[C@H](C)OC)c2c3cc(ccc31)-c1csc(n1)C[C@H](NC(=O)[C@H](C(C)C)N(C)C(=O)N1CC(N(C)C(=O)C#CC(C)(C)N3CCC3)C1)C(=O)N1CCC[C@H](N1)C(=O)OCC(C)(C)C2` [Example A379] belongs less than 5 µM; to `C=CC(=O)N(C)C1CCN(C(=O)N(C)[C@H](C(=O)N[C@H]2Cc3nc(cs3)-c3ccc4c(c3)c(c(-c3cccnc3[C@H](C)OC)n4CC)CC(C)(C)COC(=O)[C@@H]3CCCN(N3)C2=O)C(C)C)C1` (stereo partly drawn) [Example A384], less than 5 µM.
To `CCn1c(-c2cccnc2[C@H](C)OC)c2c3cc(ccc31)N1CCO[C@@](C)(CC(NC(=O)[C@H](C(C)C)N(C)C(=O)C3(F)CCN(C(=O)C#CC(C)(C)N(C)C)CC3)C(=O)N3CCC[C@H](N3)C(=O)OCC(C)(C)C2)C1` (stereo partly drawn) [Example A550] belongs less than 5 µM; to `C=CC(=O)N1CCO[C@H]2CN(C(=O)N(C)[C@H](C(=O)N[C@H]3CN4CCC=C(C4)c4ccc5c(c4)c(c(-c4cccnc4[C@H](C)OC)n5CC)CC(C)(C)COC(=O)[C@@H]4CCCN(N4)C3=O)C(C)C)C[C@H]21` [Example A552], less than 5 µM.
As for `CO[C@@H](COC1CN(C(=O)C#CC(C)(C)N(C)C)C1)C(=O)N[C@H]1Cc2cccc(c2)-c2ccc3c(c2)c(c(-c2cccnc2[C@H](C)OC)n3CC(F)(F)F)CC(C)(C)COC(=O)[C@@H]2CCCN(N2)C1=O` [Example A556], the EC50 was less than 5 µM.
To `CCn1c(-c2cccnc2[C@H](C)OC)c2c3cc(ccc31)-c1cccc(c1)C[C@H](NC(=O)[C@H](C(C)C)N1CC[C@]3(CCN(C(=O)C#C[C@]4(N(C)C)CCOC4)C3)C1=O)C(=O)N1CCC[C@H](N1)C(=O)OCC(C)(C)C2` [Example A559] belongs less than 5 µM.
Then `C=CC(=O)N1CCOC2(CCN(C(=O)N(C)[C@H](C(=O)N[C@H]3CN4CCC=C(C4)c4ccc5c(c4)c(c(-c4cccnc4[C@H](C)OC)n5CC)CC(C)(C)COC(=O)[C@@H]4CCCN(N4)C3=O)C(C)C)CC2)C1` [Example A563], with less than 5 µM; and `CCn1c(-c2cccnc2[C@H](C)OC)c2c3cc(ccc31)-c1cccc(c1)C[C@H](NC(=O)[C@H](C(C)C)N1CC[C@]3(CCN(C(=O)C#C[C@@H]4COCCN4C4COC4)C3)C1=O)C(=O)N1CCC[C@H](N1)C(=O)OCC(C)(C)C2` [Example A565], with less than 5 µM.
Then `CCn1c(-c2cccnc2[C@H](C)OC)c2c3cc(ccc31)-c1cccc(c1)C[C@H](NC(=O)[C@@H](CN1CC[C@]3(CCN(C(=O)C#C[C@H]4COCCN4C)C3)C1=O)C(C)C)C(=O)N1CCCC(N1)C(=O)OCC(C)(C)C2` (stereo partly drawn) [Example A592], with less than 5 µM.
For `C=CC(=O)N1CCO[C@@]2(CCN(C(=O)N(C)[C@H](C(=O)N[C@H]3Cc4nc(cs4)-c4ccc5c(c4)c(c(-c4cccnc4[C@H](C)OC)n5CC(F)(F)F)CC(C)(C)COC(=O)C4CCCN(N4)C3=O)C(C)C)C2)C1` (stereo partly drawn) [Example A594], the EC50 was less than 5 µM.
Then `C=CC(=O)N1CCO[C@H]2CN(C(=O)N(C)[C@H](C(=O)N[C@H]3Cc4cccc(n4)-c4ccc5c(c4)c(c(-c4cccnc4[C@H](C)OC)n5CC(F)(F)F)CC(C)(C)COC(=O)C4CCCN(N4)C3=O)C(C)C)C[C@H]21` (stereo partly drawn) [Example A595], with less than 5 µM; and `C=CC(=O)N1CCC2(C1)CN(C(=O)N(C)[C@H](C(=O)N[C@H]1Cc3nc(cs3)-c3ccc4c(c3)c(c(-c3cccnc3[C@H](C)OC)n4CC(F)(F)F)CC(C)(C)COC(=O)C3CCCN(N3)C1=O)C(C)C)C2` (stereo partly drawn) [Example A603], with less than 5 µM.
To `C=CC(=O)N1CCOC2(CCN(C(=O)N(C)[C@H](C(=O)N[C@H]3Cc4cc(CF)cc(c4)-c4ccc5c(c4)c(c(-c4cccnc4[C@H](C)OC)n5CC(F)(F)F)CC(C)(C)COC(=O)C4CCCN(N4)C3=O)C(C)C)CC2)C1` (stereo partly drawn) [Example A605] belongs less than 5 µM; to `C=CC(=O)N1CCOC2(CCN(C(=O)N(C)[C@H](C(=O)N[C@H]3Cc4nc(n(C)n4)-c4ccc5c(c4)c(c(-c4cccnc4[C@H](C)OC)n5CC(F)(F)F)CC(C)(C)COC(=O)C4CCCN(N4)C3=O)C(C)C)CC2)C1` (stereo partly drawn) [Example A606], less than 5 µM.
To `C=CC(=O)N1CCOC2(CCN(C(=O)N(C)[C@H](C(=O)N[C@H]3Cc4cccc(c4)-c4ccc5c(c4)c(c(-c4cccnc4[C@H](C)OC)n5CC(F)(F)F)CC(C)(C)COC(=O)C4CCCN(N4)C3=O)C(C)C)CC2)C1` (stereo partly drawn) [Example A608] belongs less than 5 µM; to `C=CC(=O)N1CCO[C@H]2CCN(C(=O)N(C)[C@H](C(=O)N[C@H]3Cc4nc(cs4)-c4ccc5c(c4)c(c(-c4cccnc4[C@H](C)OC)n5CC)CC(C)(C)COC(=O)C4CCCN(N4)C3=O)C(C)C)C[C@@H]21` (stereo partly drawn) [Example A609], less than 5 µM; to `C=CC(=O)N1CCO[C@H]2CN(C(=O)N(C)[C@H](C(=O)N[C@H]3Cc4cccc(c4)-c4ccc5c(c4)c(c(-c4cccnc4[C@H](C)OC)n5CC)CC(C)(C)COC(=O)C4CCCN(N4)C3=O)C(C)C)C[C@H]21` (stereo partly drawn) [Example A610], less than 5 µM.
Take `CCn1c(-c2cccnc2[C@H](C)OC)c2c3cc(ccc31)N1CCO[C@@H](C[C@H](NC(=O)[C@H](C(C)C)N(C)C(=O)[C@@]3(F)CCN(C(=O)C#CC(C)(C)N4CCC4)C3)C(=O)N3CCC[C@H](N3)C(=O)OCC(C)(C)C2)C1` [Example A726]: the concentration for a half-maximal effect (EC50) was less than 5 µM.
